In patent US8618101B2, “N-((1R,2S,5R)-5-(tert-butylamino)-2-((S)-3-(7-tert-butylpyrazolo[1,5-a][1,3,5]triazin-4-ylamino)-2-oxopyrrolidin-1-yl)cyclohexyl)acetamide, a dual modulator of chemokine receptor activity, crystalline forms and processes” (Bristol-Myers Squibb Company, priority 2009, dated 2013):

Biological target: T1, hERG (Homo sapiens, UniProt Q12809)
T1 construct: expressed in transfected cells; host or cells: HEK293
Assay: hERG patch clamp
Format: cell-based
Details: read-out: hERG patch clamp (% Inhib.)
Description: Whole-cell patch-clamp was used to directly measure hERG currents in HEK-293 cells stably expressing the cloned hERG potassium channel α subunit. […] Repetitive test pulses (0.05 Hz) were applied from a holding potential of −80 mV to +20 mV for 2 seconds and tail currents were elicited following the test pulses by stepping the voltage to −65 mV. The effects from the compound were calculated by measuring inhibition of peak tail current

T1 sequence (Q12809 whole entry): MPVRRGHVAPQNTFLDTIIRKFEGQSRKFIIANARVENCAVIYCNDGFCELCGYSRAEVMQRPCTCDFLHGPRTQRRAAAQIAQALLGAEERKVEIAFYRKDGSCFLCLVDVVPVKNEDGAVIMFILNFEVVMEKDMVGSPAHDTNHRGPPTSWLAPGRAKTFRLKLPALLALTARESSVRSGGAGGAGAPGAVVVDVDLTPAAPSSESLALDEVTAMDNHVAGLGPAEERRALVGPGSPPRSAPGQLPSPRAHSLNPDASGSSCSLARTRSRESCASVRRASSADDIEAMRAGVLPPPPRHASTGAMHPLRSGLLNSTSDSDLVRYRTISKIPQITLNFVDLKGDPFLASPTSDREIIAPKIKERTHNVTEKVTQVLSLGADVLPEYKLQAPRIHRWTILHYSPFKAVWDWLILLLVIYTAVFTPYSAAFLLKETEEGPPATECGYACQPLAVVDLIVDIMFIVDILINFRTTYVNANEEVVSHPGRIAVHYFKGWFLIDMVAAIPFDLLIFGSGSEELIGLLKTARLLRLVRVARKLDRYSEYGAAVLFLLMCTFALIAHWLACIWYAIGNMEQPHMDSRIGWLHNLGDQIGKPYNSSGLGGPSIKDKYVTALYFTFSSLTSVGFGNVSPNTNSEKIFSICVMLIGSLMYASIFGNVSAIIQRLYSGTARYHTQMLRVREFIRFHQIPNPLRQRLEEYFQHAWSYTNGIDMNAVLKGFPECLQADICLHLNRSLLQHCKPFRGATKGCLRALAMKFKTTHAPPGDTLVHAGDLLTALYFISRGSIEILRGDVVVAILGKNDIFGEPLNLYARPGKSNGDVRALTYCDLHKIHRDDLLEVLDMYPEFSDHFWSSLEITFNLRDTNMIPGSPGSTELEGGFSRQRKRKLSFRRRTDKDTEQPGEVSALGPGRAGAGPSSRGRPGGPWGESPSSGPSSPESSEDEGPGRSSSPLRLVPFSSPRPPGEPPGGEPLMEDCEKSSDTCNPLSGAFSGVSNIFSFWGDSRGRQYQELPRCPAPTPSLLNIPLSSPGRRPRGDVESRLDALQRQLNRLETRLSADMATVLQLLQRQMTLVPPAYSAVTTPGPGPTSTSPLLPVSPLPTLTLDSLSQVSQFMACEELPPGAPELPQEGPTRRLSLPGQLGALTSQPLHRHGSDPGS

CC(=O)N[C@@H]1C[C@H](NC(C)(C)C)CC[C@@H]1N1CC[C@H](Nc2ncnc3cc(C(C)(C)C)nn23)C1=O [Example 1, N-((1R,2 S,5R)-5-(tert-Butylamino)-2-((S)-3-(7-tert-butylpyrazolo[1,5-a][1,3,5]triazin-4-ylamino)-2-oxopyrrolidin-1-yl)cyclohexyl)acetamide]
inhibition at 10000 nM (pH 7.4, 10,000 nM): 1.2%
inhibition at 30000 nM (pH 7.4, 30,000 nM): 9.2%
